According to patent publication US20110152099A1, “BIOACTIVE COMPOUNDS OF ASCOPHYLLUM NODOSUM AND THEIR USE FOR ALLEVIATING SALT-INDUCED STRESS IN PLANTS” (priority 2008, published 2011):

System: plants under salt stress
Test: Root length under salt stress
Format: in vivo
Settings: compared to +Na untreated plants
Description: The code numbers in FIG. 18 refer to different organic extracts.

SMILES: C/C=C(/CCC(C)C1CCC2C3CC=C4CC(O)CCC4(C)C3CCC12C)C(C)C (stereo not shown) [fucosterol, 24-ethylidene cholesterol]
- root length: longer root length
